Data on 2 compounds can be found in patent US10383844B2, “Methods for treating pulmonary fibrosis using chromenone derivatives” (College of Medicine Pochon Cha University Industry—Academic …, priority 2017, dated 2019).

Structures are written as SMILES.

Data set [1] has as its system L132 cells. The experiment in a line: Degree of EMT induced by TGF-beta in L132 cells (western blots). The format is cell-based. Conditions: L132, 0.1 μM, 1 hour later TGF-beta 5 ng/mL for 48 hours, FIG. 3(A). The procedure:
(§1) For the experiment, L132 cells were cultured at 37° C. in a 5% CO2 incubator by using an RPMI 1640 (RPMI, GIBCO-Invitrogen, Paisley, Scotland, UK) medium containing 10% FBS and 1× Antibiotic-Antimycotic (GIBCO-Invitrogen, Paisley, Scotland, UK).
(§2) To carry out the western blots, the treated cells were respectively washed twice with 1×PBS (0.14 M NaCl, 2.68 mM KCl, 10 mM Na2HPO4, 1.83 mM KH2PO4), after which the resulting cells were dissolved in a protein lysis buffer (100 mM Tris-HCl (pH 7.5), 50 mM NaCl, 5 mM EDTA (pH 8.0), 0.5% NP-40, 0.5% Sodium deoxycholate, 50 mM β-glycerophosphate, 0.1 mM Na3VO4, 50 mM NaF). A cell suspension was centrifuged at 13000 rpm for 30 minutes, after which only a supernatant thereof was taken out, such that 1% BSA solution was injected by 8, 6, 4, 2 and 0 μL into Protein Dye 1 mL as a standard by using a Bradford assay and 2 μL of the supernatant was added thereinto. The resulting solution was divided by 200 μL into each of a 96-well plate, after which the resulting plate was put into an ELISA reader to measure an optical observance thereof at an wavelength of 595 nm, such that a 6× sample buffer (0.35 M Tris (pH 6.8), 3% glycerol, 1% Sodium Dodecyl Sulfate, 6 mM Dithiothreitol) was injected to make a sample containing the same amount of protein. Then, the resulting sample was soaked in 100° C. water and boiled for 5 minutes and the same amount of protein was analyzed by using SDS-PAGE. A primary antibody used for the western blots was anti-HSP27 and β-actin (Santacruz, sc-13132 and sc-47778), and also anti-E-cadherin (BD, #610181), anti-Vimentin (BD, #550513), anti-Fibronectin (BD, #610077), anti-snail (Cell signaling, #3895S), anti-alpha-smooth muscle actin (Sigma, A5228), and anti-Zo-1 (Life technologies, #402200) were used. A secondary antibody used was Goat anti rabbit and Goat anti mouse (Santacruz, sc-2004 and sc-2005).
To identify a degree of EMT according to a production of altered HSP27 dimers in cells, L132, a normal lung cell, was treated with Compound 1 of the present invention at a 0.1 μM concentration, and in 1 hour later the cell was treated with TGF-beta at a 5 ng/mL concentration for 48 hours. Then, a cell culture and western blots were performed in the same method as the above Experimental Example 1.
(In general: Immunoblotting shows a protein as a band on a membrane.)

For data set [2], the system named is L132 cells. The data set can be described thus: Degree of radiation-induced EMT in L132 cells (western blots). The format is cell-based. Particulars: L132, 0.1 μM, 1 hour later radiation 5 Gy, 48 hours, FIG. 3(B). Here is the method:
as §1
as §2, with “sc-2005). […]” for “sc-2005).”

Data set [3] relates to radiation-induced pulmonary fibrosis. The data set can be described thus: Small animal model of radiation-induced pulmonary fibrosis (local lung irradiation). Conditions: C57BL/6 male mouse, left lung 75 Gy, 13.6 mg/kg intraperitoneally three times a week, FIG. 4(B). The format is in vivo. The procedure: To identify an anti-pulmonary fibrosis effect according to a production of HSP27 dimers in a small animal model on lung side effects with clinically analogous irradiation, the small animal model was exposed to a radiation dose in a range of high dose clinical radiotherapy to induce a pulmonary fibrosis process.
As shown in FIG. 4(A), a 10 week-old C57BL/6 male mouse was anesthetized with an anesthetic mixture of 30 mg/kg Zoletil and 10 mg/kg Rompun, after which a left lung of the mouse was exposed to a high dose radiation of 75 Gy in a 3 mm range by using X-Rad 320 (Precision, North Branford, Conn., USA). Then, Compound 1 of the present invention was intraperitoneally administered to the mouse at a 13.6 mg/kg concentration three times a week. During its sacrifice, the mouse was anesthetized, after which 10% formalin was injected into the anesthetized mouse through an airway thereof to fix its lung, such that a tissue sample was prepared by using a paraffin embedding.
An amount of collagen was histologically identified through Masson's trichrome dyeing to compare degrees of pulmonary fibrosis with each other.

What is called melting point is the temperature, or range, at which the solid turns liquid. Regarding `Cc1cc(=O)c2c(OCC3CS3)cc(OCC3CS3)cc2o1` (stereo not drawn), the melting point is 95 to 96 °C.
As for `Cc1cc(=O)c2c(O)cc(OCC3CS3)cc2o1` (stereo not drawn) [Compound 1, 5-hydroxy-2-methyl-7-(thiirane-2-ylmethoxy)-4H-chromene-4-one], in the data set on L132 cells [1], the “altered HSP dimers” value was “increasing altered HSP dimers in a dose-dependent manner”, the “expression of E-cadherin (marker of epithelial cells)” value is “mitigating a decrease”, the “expression of Fibronectin (marker of mesenchymal cells)” value was “inhibiting an increase” and the “expression of Snail (marker of mesenchymal cells)” value is listed as “inhibiting an increase”. In the data set on L132 cells [2], the “expression of E-cadherin” value is recorded as “mitigated a decrease”, the “expression of Twist (marker of mesenchymal cells)” value is given as “inhibited an increase” and the “expression of Zo-1” value was “mitigated a decrease”. Moreover, the “immune response lesion in locally irradiated lung region (naked eye)” value in data set [3] is “the lesion was recovered”.
